Test results: PMC12380353, “MK-8527 is a novel inhibitor of HIV-1 reverse transcriptase translocation with potential for extended-duration dosing” (PLOS Biology, 2025)

What was measured:
[1] = CellTiter-Glo (CTG) cytotoxicity in MT4-GFP cells; conditions: human
HIV-1 [2] = test: Multicycle antiviral assay in MT4-GFP cells; assay type: cell-based; conditions: 10% NHS
Method: Compounds were evaluated for their ability to prevent HIV-1 infection in MT4-GFP cells as described in Diamond, and colleagues. HIV-1 replication was monitored using the MT4-gag-GFP clone D3, and MT4 cells with a GFP reporter gene, the expression of which is dependent on the HIV-1 expressed proteins tat and rev. […] Proviral variants used for these studies were generated by site-directed mutagenesis in the WT R8 proviral plasmid. Virus was produced by transfection in 293T cells.
Briefly, MT4-GFP cells were cultured overnight with the appropriate HIV-1 variant at an approximate multiplicity of infection of 0.01. After approximately 19 h of infection, the cells were washed and resuspended in assay media containing 10% normal human serum (NHS) before being added to 384-well compound plates containing 10-point serial 3-fold dilutions of compound. Controls included no inhibitor (dimethyl sulfoxide [DMSO] only) and a combination of 3 antiviral agents, efavirenz, indinavir, and an integrase strand transfer inhibitor, L-002254051, at final concentrations of 4 µM each. The infected or treated cells were cultured at 37 °C, 5% CO2, and 90% humidity until evaluation of infection was conducted at approximately 48 and 72 h post-infection by counting the number of GFP cells in each well using an Acumen eX3 scanner (SPT Labtech; Melbourn, UK). The reproductive ratio, R, was calculated by dividing the number of infected cells at 72 h by the number at 48 h post-infection. The percentage inhibition caused by a test compound was calculated by the following formula:
inhibition = [1−(Rtest compound − Rpositive control)]/(RDMSO only − Rpositive control) × 100%\]
The dose–response curves of each test compound were plotted as percentage inhibition versus the test concentration.

HIV-1 [3] = test: Single-cycle antiviral assay in PBMCs; assay type: cell-based
Method: To evaluate the ability of inhibitors to prevent HIV-1 infection in primary cells, human PBMCs obtained from Biological Specialty Corporation (Colmar, PA, USA) were used to assess antiviral activity. The proviral variants used for these studies were generated by site-directed mutagenesis in a proviral vector derived from NL43 [52] that encodes GFP (pNLG1-P2A-GFP). Virus was produced by transfection in 293T cells.
PBMCs were activated with phytohemagglutinin (PHA) at 5 μg/mL in Roswell Park Memorial Institute (RPMI) 1640 medium containing 10% heat-inactivated fetal bovine serum (FBS) for 2–3 days. Compound plates were prepared by dispensing compounds dissolved in DMSO into 384-well poly-d-lysine-coated plates (0.2 μL per well) using an Echo acoustic dispenser (Labcyte; San Jose, CA, USA). Each compound was tested in a 10-point serial 3-fold dilution (typical final concentrations: 5,000 to 0.1 nM). Controls included no inhibitor (DMSO only) and a combination of 3 antiviral agents, efavirenz, indinavir, and the integrase strand transfer inhibitor, L-002254051, at final concentrations of 4 μM each. PHA-activated human PBMCs were washed and resuspended in RPMI 1640 containing 10% NHS and 30 units per mL of interleukin-2 (IL-2) at 6 × 10^5 cells per mL. PBMCs were added to the compound plates and cultured for 24 h at 37 °C, 5% CO2, and 90% humidity. The appropriate HIV-1 variant was added to the PBMCs and cultured at 37 °C, 5% CO2, and 90% humidity for an additional 24 h.
HIV-1–infected cells were quantified by counting the number of GFP cells in each well using an Acumen eX3 scanner (SPT Labtech; Melbourn, UK).

MT4-GFP cells = test: CellTiter-Glo (CTG) cytotoxicity in MT4-GFP cells; conditions: read-out: MT4-GFP CTG CC50, CellTiter-Glo
[4] = Human immunodeficiency virus 1, WT HIV-1, multicycle assay
[5] = Human immunodeficiency virus 1, PBMC, read-out: PBMC IC50, HIV-1, single-cycle assay, human PBMCs, 10% NHS

| Compound | CC50 [1] [µM] | IC50 (HIV-1 [2]; [4]) [µM] | IC50 (HIV-1 [3]; [5]) [µM] | MT4-GFP IC50 (HIV-1 [2]; WT HIV-1, multicycle assay) | PBMC IC50 (HIV-1 [3]; HIV-1, single-cycle assay, human PBMCs, 10% NHS) | CC50 (MT4-GFP cells) [µM] | IC50 (HIV-1 [2]; WT HIV-1, multicycle assay) [µM] | IC50 (HIV-1 [3]; HIV-1, single-cycle assay, human PBMCs, 10% NHS, read-out: PBMC IC50) [µM] |
| --- | --- | --- | --- | --- | --- | --- | --- | --- |
| C#C[C@]1(CO)O[C@@H](n2cnc3c(N)nc(Cl)nc32)C[C@@H]1O [Compound 1, (2R,3S,5R)-5-(6-amino-2-chloro-9H-purin-9-yl)-2-ethynyl-2-(hydroxymethyl)-tetrahydrofuran-3-ol] | > 42 | 0.0027 | 0.0004 | – | – | – | – | – |
| C#C[C@]1(CO)O[C@@H](n2cnc3c(N)nc(C)nc32)C[C@@H]1O [Compound 2, (2R,3S,5R)-5-(6-amino-2-methyl-9H-purin-9-yl)-2-ethynyl-2-(hydroxymethyl)-tetrahydrofuran-3-ol] | > 42 | 0.109 | 0.0359 | – | – | – | – | – |
| C#C[C@]1(CO)O[C@@H](n2cnc3c(N)nc(C(F)(F)F)nc32)C[C@@H]1O [Compound 3, (2R,3S,5R)-5-(6-amino-2-(trifluoromethyl)-9H-purin-9-yl)-2-ethynyl-2-(hydroxymethyl)tetrahydrofuran-3-ol] | > 42 | > 42 | > 11.9 | – | – | – | – | – |
| C#C[C@]1(CO)O[C@@H](n2cnc3c(NC4CC4)nc(F)nc32)C[C@@H]1O [Compound 4, (2R,3S,5R)-5-(6-(cyclopropylamino)-2-fluoro-9H-purin-9-yl)-2-ethynyl-2-(hydroxymethyl)tetrahydrofuran-3-ol] | > 42 | 4.3 | 3.29 | – | – | – | – | – |
| C#C[C@]1(CO)O[C@@H](n2ccc3c(N)ncnc32)C[C@@H]1O [Compound 5, (2R,3S,5R)-5-(4-amino-7H-pyrrolo[2,3-d]pyrimidin-7-yl)-2-ethynyl-2-(hydroxymethyl)tetrahydrofuran-3-ol] | 30.8 | 0.0019 | 0.0009 | – | – | – | – | – |
| C#C[C@]1(CO)O[C@@H](n2c(C)cc3c(N)ncnc32)C[C@@H]1O [Compound 6, (2R,3S,5R)-5-(4-amino-6-methyl-7H-pyrrolo[2,3-d]pyrimidin-7-yl)-2-ethynyl-2-(hydroxymethyl)tetrahydrofuran-3-ol] | > 42 | > 2 | > 2 | – | – | – | – | – |
| C#C[C@]1(CO)O[C@@H](n2cc(C)c3c(N)ncnc32)C[C@@H]1O [Compound 7, (2R,3S,5R)-5-(4-amino-5-methyl-7H-pyrrolo[2,3-d]pyrimidin-7-yl)-2-ethynyl-2-(hydroxymethyl)tetrahydrofuran-3-ol] | > 42 | 1.68 | 0.682 | – | – | – | – | – |
| C#C[C@]1(CO)O[C@@H](n2cc(-c3ccn[nH]3)c3c(N)ncnc32)C[C@@H]1O [Compound 10, (2R,3S,5R)-5-(4-amino-5-(1H-pyrazol-5-yl)-7H-pyrrolo[2,3-d]pyrimidin-7-yl)-2-ethynyl-2-(hydroxymethyl)tetrahydrofuran-3-ol] | > 42 | 1.59 | 0.907 | – | – | – | – | – |
| C#C[C@]1(CO)O[C@@H](n2ccc3c(N)nc(F)nc32)C[C@@H]1O [Compound 11, (2R,3S,5R)-5-(4-amino-2-fluoro-7H-pyrrolo[2,3-d]pyrimidin-7-yl)-2-ethynyl-2-(hydroxymethyl)tetrahydrofuran-3-ol] | > 42 | 0.0168 | 0.0105 | – | – | – | – | – |
| C#C[C@]1(CO)O[C@@H](n2cc(F)c3c(N)nc(Cl)nc32)C[C@@H]1O [Compound 13, (2R,3S,5R)-5-(4-amino-2-chloro-5-fluoro-7H-pyrrolo[2,3-d]pyrimidin-7-yl)-2-ethynyl-2-(hydroxymethyl)tetrahydrofuran-3-ol] | > 42 | 0.0024 | 0.0002 | single-digit nanomolar potency | subnanomolar potency | – | – | – |
| C#C[C@]1(CO)O[C@@H](n2ccc3c(N)nc(N)nc32)C[C@@H]1O [Compound 14, (2R,3S,5R)-5-(2,4-diamino-7H-pyrrolo[2,3-d]pyrimidin-7-yl)-2-ethynyl-2-(hydroxymethyl)tetrahydrofuran-3-ol] | > 42 | 0.277 | 0.257 | – | – | – | – | – |
| C#C[C@]1(CO)O[C@@H](n2nnc3c(N)ncnc32)C[C@@H]1O [Compound 15, (2R,3S,5R)-5-(7-amino-3H-[1,2,3]triazolo[4,5-d]pyrimidin-3-yl)-2-ethynyl-2-(hydroxymethyl)tetrahydrofuran-3-ol] | > 42 | 7.59 | 7.57 | completely inactive | – | – | – | – |
| C#C[C@]1(CO)O[C@@H](c2ccc3c(N)ncnn23)C[C@@H]1O [Compound 16, (2R,3S,5R)-5-(4-aminopyrrolo[2,1-f][1,2,4]triazin-7-yl)-2-ethynyl-2-(hydroxymethyl)tetrahydrofuran-3-ol] | 22.3 | 0.0216 | 0.0192 | – | – | – | – | – |
| C#CC1(CO)CC(n2cnc3c(N)nc(F)nc32)CC1O (stereo not drawn) [Compound 17, 4-(6-amino-2-fluoro-9H-purin-9-yl)-2-ethynyl-2-(hydroxy-methyl)cyclopentan-1-ol] | > 42 | 5.02 | 0.383 | – | – | – | – | – |
| C#CC1(CO)CC(n2cnc3c(N)nc(Cl)nc32)CC1O (stereo not drawn) [Compound 18, 4-(6-amino-2-chloro-9H-purin-9-yl)-2-ethynyl-2-(hydroxy-methyl)-cyclopentan-1-ol] | > 42 | 22.7 | 0.982 | – | – | – | – | – |
| C#C[C@]1(CO)C[C@@H](n2ccc3c(N)nc(Cl)nc32)C[C@@H]1O [Compound 19, (1S,2S,4R)-4-(4-amino-2-chloro-7H-pyrrolo[2,3-d]pyrimidin-7-yl)-2-ethynyl-2-(hydroxymethyl)cyclopentan-1-ol] | > 42 | 22.6 | 1.16 | – | – | – | – | – |
| C#C[C@]1(CO)C[C@@H](n2cnc3c(=O)[nH]c(N)nc32)C[C@@H]1O [Compound 20, 2-amino-9-((1R,3S,4S)-3-ethynyl-4-hydroxy-3-(hydroxymethyl)-cyclopentyl)-1,9-dihydro-6H-purin-6-one] | > 42 | 0.103 | 0.0204 | – | – | – | – | – |
| (2R,3S,5R)-5-(4-amino-5-fluoro-7H-pyrrolo[2,3-d]pyrimidin-7-yl)-2-ethynyl-2-(hydroxymethyl)tetrahydrofuran-3-ol [Compound 9] | – | – | – | – | – | > 42 | 37.2 | 3.41 |
